Patent publication US20060035869A1, “Inhibitors of epoxide hydrolases for the treatment of hypertension” (THE REGENTS OF THE UNIVERSITY OF CALIFORNIA OFFICE OF …, priority 1999, published 2006)
Where two headings read alike, the source gives them in different places.

Experiments:
mouse sEH = target: T1, mouse sEH (Mus musculus, UniProt P34914); experiment: Inhibition of recombinant mouse soluble EH, spectrophotometric NEP2C assay; format: biochemical
T1 construct: made in house; host or cells: baculovirus expression system (insect cells)
T1 sequence (P34914 1-554): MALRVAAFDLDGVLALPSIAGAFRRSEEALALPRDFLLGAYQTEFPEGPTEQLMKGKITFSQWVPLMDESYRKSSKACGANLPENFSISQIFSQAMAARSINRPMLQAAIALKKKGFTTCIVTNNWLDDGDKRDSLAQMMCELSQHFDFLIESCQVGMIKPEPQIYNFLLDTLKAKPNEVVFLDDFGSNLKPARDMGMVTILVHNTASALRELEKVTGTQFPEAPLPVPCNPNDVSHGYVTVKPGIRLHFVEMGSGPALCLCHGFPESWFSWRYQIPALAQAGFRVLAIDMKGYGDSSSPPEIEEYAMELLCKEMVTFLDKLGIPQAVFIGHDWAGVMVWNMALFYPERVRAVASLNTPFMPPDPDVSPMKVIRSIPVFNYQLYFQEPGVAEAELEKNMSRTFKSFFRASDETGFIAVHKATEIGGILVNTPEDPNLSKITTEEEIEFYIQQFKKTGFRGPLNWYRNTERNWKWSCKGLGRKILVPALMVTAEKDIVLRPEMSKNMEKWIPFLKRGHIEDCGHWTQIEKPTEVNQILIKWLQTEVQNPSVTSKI
Experimental: (§1) Recombinant mouse sEH (MsEH) and human sEH (HsEH) were produced in a baculovirus expression system as previously reported. […] The expressed proteins were purified from cell lysate by affinity chromatography. […] Protein concentration was quantified using the Pierce BCA assay using bovine serum albumin as the calibrating standard.
(§2) The mixture was incubated at 30° C. for 5 minutes. […] Assays were performed in quadruplicate.

Rat mEH = target: T2, Rat mEH (Rattus norvegicus, UniProt P07687); experiment: Inhibition of mammalian microsomal EH, 3H-cis-stilbene oxide assay; format: biochemical
T2 sequence (P07687 1-455): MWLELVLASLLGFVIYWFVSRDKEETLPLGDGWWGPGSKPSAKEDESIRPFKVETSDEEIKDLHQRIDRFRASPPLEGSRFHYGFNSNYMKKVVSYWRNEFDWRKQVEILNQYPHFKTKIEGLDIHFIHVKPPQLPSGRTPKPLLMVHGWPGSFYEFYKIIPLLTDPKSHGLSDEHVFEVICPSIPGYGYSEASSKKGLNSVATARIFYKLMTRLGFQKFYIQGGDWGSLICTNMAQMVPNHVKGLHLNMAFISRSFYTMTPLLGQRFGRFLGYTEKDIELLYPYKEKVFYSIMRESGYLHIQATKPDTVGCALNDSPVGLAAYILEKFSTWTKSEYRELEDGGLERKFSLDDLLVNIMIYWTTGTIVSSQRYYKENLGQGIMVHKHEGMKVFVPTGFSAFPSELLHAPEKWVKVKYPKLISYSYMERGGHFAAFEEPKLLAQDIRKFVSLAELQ
Experimental: as §2

[1] = tested on: leukotoxin/isoleukotoxin induced death; experiment: Protection of mice against leukotoxin/isoleukotoxin induced death; format: in vivo, mouse; conditions: Swiss Webster mice, 400 mg/kg i.p. in corn oil 30 minutes before leukotoxin/isoleukotoxin methyl esters 700 mg/kg i.v.
Experimental: Male Swiss Webster mice (25-28 g) were purchased from Simonsen, Gilroy, Calif. The animals had free access to water and food. […] After 30 minutes of the pretreatment, the mice were treated intravenously through the tail vein with a 1:1 mixture of leukotoxin/isoleukotoxin methyl esters in ethanol (700 mg/kg, 1.0 ml/kg).
The mice died of respiratory distress after exposure to leukotoxin/isoleukotoxin. The lethal reactions took place sequentially with accelerated breathing, opening of the mouth to assist breathing, and bloody fluid running from the nose.

human sEH = target: T3, human sEH (Homo sapiens, UniProt P34913); experiment: Inhibition of recombinant human soluble EH, spectrophotometric NEP2C assay; format: biochemical; conditions: recombinant enzyme, NEP2C 40 μM, 30° C., pH 7.4
T3 construct: made in house; host or cells: baculovirus expression system (insect cells)
T3 sequence (P34913 1-555): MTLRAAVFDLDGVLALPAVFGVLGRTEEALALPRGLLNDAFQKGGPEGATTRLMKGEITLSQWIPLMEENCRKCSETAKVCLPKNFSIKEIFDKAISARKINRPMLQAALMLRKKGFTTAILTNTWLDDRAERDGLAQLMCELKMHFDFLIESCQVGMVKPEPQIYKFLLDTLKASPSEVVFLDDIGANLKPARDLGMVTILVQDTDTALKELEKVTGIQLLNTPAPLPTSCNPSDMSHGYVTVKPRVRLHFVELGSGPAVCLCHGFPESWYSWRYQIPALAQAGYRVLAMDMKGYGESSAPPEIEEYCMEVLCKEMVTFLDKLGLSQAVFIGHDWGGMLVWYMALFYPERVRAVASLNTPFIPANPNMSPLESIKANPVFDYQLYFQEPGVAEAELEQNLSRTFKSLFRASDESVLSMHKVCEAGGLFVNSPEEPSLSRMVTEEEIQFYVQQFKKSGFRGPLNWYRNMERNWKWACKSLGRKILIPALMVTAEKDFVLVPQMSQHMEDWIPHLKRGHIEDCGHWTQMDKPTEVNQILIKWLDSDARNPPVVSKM
Experimental: as §1, §2

M secta mEH = target: T4, M secta mEH (Manduca sexta, UniProt Q25489); experiment: Inhibition of recombinant insect microsomal EH; format: biochemical
T4 sequence (Q25489 1-462): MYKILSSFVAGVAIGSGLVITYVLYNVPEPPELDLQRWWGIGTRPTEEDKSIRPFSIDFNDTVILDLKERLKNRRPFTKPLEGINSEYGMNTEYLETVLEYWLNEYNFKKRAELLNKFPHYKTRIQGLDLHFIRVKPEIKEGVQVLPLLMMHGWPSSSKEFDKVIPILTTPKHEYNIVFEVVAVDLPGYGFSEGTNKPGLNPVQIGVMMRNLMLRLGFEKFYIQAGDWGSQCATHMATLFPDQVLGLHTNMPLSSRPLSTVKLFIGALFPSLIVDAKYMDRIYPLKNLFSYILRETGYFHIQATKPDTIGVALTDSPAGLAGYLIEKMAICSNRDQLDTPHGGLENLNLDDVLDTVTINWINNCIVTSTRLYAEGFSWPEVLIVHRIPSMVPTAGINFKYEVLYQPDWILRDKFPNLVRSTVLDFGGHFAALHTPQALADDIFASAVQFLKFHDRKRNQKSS

[2] = recombinant enzyme, NEP2C 40 μM, 30° C., pH 7.4, read-out: Mouse sEH IC50

IC50 (Rat mEH)	Structure (SMILES)	IC50 (human sEH)	also measured
–	C(=NC1CCCCC1)=NC1CCCCC1 [Compound 1, dicyclohexylcarbodiimide]	–	effect of time on the inhibition of mouse sEH (mouse sEH; FIG. 1): increased with the time
–	O=C(NC1CCCCC1)SC1CCCCC1 [Compound 11]	7.5 ± 0.4 µM	IC50 (mouse sEH): 3.8 ± 0.01 µM
–	S=C(NC1CCCCC1)NC1CCCCC1 [Compound 12]	20 ± 1 µM	IC50 (mouse sEH; [2]): 99 ± 5 µM
–	CCCCCCCCCCNC(=O)NC [Compound 17]	–	IC50 (M secta mEH): 28 ± 2 µM
–	CCCCCCCCCCNC(=O)NCC [Compound 19]	–	IC50 (M secta mEH): 4.8 ± 0.4 µM
> 500 µM	O=C(NCC1CCCCC1)NC1CCCCC1 [Compound 57]	–	–
73 ± 1 µM	CCCCCCCCNC(N)=O [Compound 101]	5.5 ± 0.1 µM	IC50 (mouse sEH; [2]): 1.04 ± 0.02 µM
> 500 µM	O=C(NCCCc1ccccc1)NC1CCCCC1 [Compound 104]	–	–
> 500 µM	O=C(Nc1ccc(Oc2ccccc2)cc1)NC1CCCCC1 [Compound 140]	–	–
> 500 µM	CCOC(CCCNC(=O)Nc1cccc(Cl)c1)OCC [Compound 167]	–	–
> 500 µM	CCCCCCCCNC(=O)NC1CCCCC1 [Compound 168]	–	–
> 500 µM	O=C(NCC1CCCCC1)Nc1ccc2ccccc2c1 [Compound 169]	–	–
> 500 µM	CCCCCCCCCCNC(=O)Nc1cccc(Cl)c1 [Compound 172]	–	–
> 500 µM	O=C(NCC1CCCCC1)Nc1cccc(Cl)c1 [Compound 179]	–	–
> 500 µM	CC(C)c1ccc(NC(=O)NCC2CCCCC2)cc1 [Compound 180]	–	–
> 500 µM	O=C(NCc1ccc(Cl)cc1)NC1CCCCC1 [Compound 193]	–	–
–	[H]/N=C(\N/C(=N/[H])NCCCCCCNC(=N)NC(=N)Nc1ccc(Cl)cc1)Nc1ccc(Cl)cc1 [Compound 204]	49 ± 7 µM	IC50 (mouse sEH; [2]): > 250 µM
> 500 µM	CC1CCC(C(C)C)C(OC(=O)NC2CCCCC2)C1 (stereo not shown) [Compound 225]	1.05 ± 0.03 µM	–
2.67 ± 0.07 µM	CCCCCCCCCCN [Compound 303]	> 500 µM	IC50 (mouse sEH; [2]): > 500 µM

Structure (SMILES)	IC50 (Rat mEH)	IC50 (human sEH)	also measured
O=C(NC1CCCCC1)NC1CCCCC1 [Compound 2, N,N′-dicyclohexylurea]	> 500 µM	–	animal death induced by leukotoxin/isoleukotoxin [1]: either blocked the animal death induced by leukotoxin/isoleukotoxin or lengthened the lives of the mice
CCCCCCCCCCNC(=O)NCC [Compound 28]	8.3 ± 0.4 µM	48 ± 3 µM	IC50 (mouse sEH; [2]): 5.8 ± 0.4 µM
CNC(=O)Nc1ccc(Cl)c(Cl)c1 [Compound 32]	> 500 µM	47 ± 2 µM	IC50 (mouse sEH; [2]): 108 ± 4 µM
O=C(NC1CCCCCCC1)NC1CCCCC1 [Compound 58]	> 500 µM	–	IC50 (M secta mEH): 3.9 ± 0.4 µM
[O-][S+](Cc1ccccc1)Cc1ccccc1 [Compound 161]	> 500 µM	289 ± 7 µM	IC50 (mouse sEH): 156 ± 3 µM
CCCCCCCCCCCCNC(=O)NCCF [Compound 238]	9.9 ± 0.2 µM	57 ± 1 µM	IC50 (mouse sEH; [2]): 50 ± 5 µM
